According to the NIST ThermoML archive (doi:10.1016/j.jct.2006.08.002):

Experiment: xn = mol fraction of the nth substance listed
Details: Fluid (supercritical or subcritical phases), Constant-volume piezometry

CCO [ethanol] + O
Details	mass density [kg/m3]
598.15 K, 15540 kPa, x1 = 0.2	308.36
598.15 K, 15600 kPa, x1 = 0.8	243.3
598.15 K, 15640 kPa, x1 = 0.2	325.01
598.15 K, 16230 kPa, x1 = 0.8	260.09
598.15 K, 16810 kPa, x1 = 0.2	420.24
598.15 K, 17080 kPa, x1 = 0.8	283.38
598.15 K, 18140 kPa, x1 = 0.8	306.39
598.15 K, 18350 kPa, x1 = 0.8	311.71
598.15 K, 19160 kPa, x1 = 0.5	326.69
598.15 K, 21410 kPa, x1 = 0.8	366.53
598.15 K, 21610 kPa, x1 = 0.5	384.81
598.15 K, 21850 kPa, x1 = 0.5	418.8
598.15 K, 22460 kPa, x1 = 0.8	381.79
598.15 K, 24130 kPa, x1 = 0.5	420.47
598.15 K, 24210 kPa, x1 = 0.5	423.68
598.15 K, 24610 kPa, x1 = 0.8	404.76
598.15 K, 27590 kPa, x1 = 0.2	547.13
598.15 K, 28350 kPa, x1 = 0.8	438.59
598.15 K, 28670 kPa, x1 = 0.5	462.7
598.15 K, 38940 kPa, x1 = 0.5	520.65
598.15 K, 48240 kPa, x1 = 0.2	617.36
598.15 K, 48500 kPa, x1 = 0.5	554.28
603.15 K, 10470 kPa, x1 = 0.2	67.54
603.15 K, 12120 kPa, x1 = 0.5	117.18
603.15 K, 14860 kPa, x1 = 0.5	170.89
603.15 K, 16860 kPa, x1 = 0.2	350.86
603.15 K, 16940 kPa, x1 = 0.5	234.07
603.15 K, 18730 kPa, x1 = 0.5	293.15
613.15 K, 23290 kPa, x1 = 0.2	452.8
623.15 K, 6210 kPa, x1 = 0.8	53.01
623.15 K, 7610 kPa, x1 = 0.5	55.79
623.15 K, 9230 kPa, x1 = 0.5	69.05
623.15 K, 10590 kPa, x1 = 0.5	84.15
623.15 K, 11070 kPa, x1 = 0.8	114.64
623.15 K, 13180 kPa, x1 = 0.5	117.07
623.15 K, 13400 kPa, x1 = 0.2	89.94
623.15 K, 15510 kPa, x1 = 0.8	187.93
623.15 K, 16770 kPa, x1 = 0.2	137.9
623.15 K, 18300 kPa, x1 = 0.8	242.99
623.15 K, 19450 kPa, x1 = 0.2	221.42
623.15 K, 20470 kPa, x1 = 0.8	283.01
623.15 K, 20590 kPa, x1 = 0.2	286.35
623.15 K, 21000 kPa, x1 = 0.2	307.94
623.15 K, 21380 kPa, x1 = 0.2	324.56
623.15 K, 21860 kPa, x1 = 0.8	305.99
623.15 K, 21920 kPa, x1 = 0.2	350.47
623.15 K, 22240 kPa, x1 = 0.8	311.3
623.15 K, 24920 kPa, x1 = 0.2	420.24
623.15 K, 26360 kPa, x1 = 0.8	366.04
623.15 K, 27820 kPa, x1 = 0.8	381.27
623.15 K, 27940 kPa, x1 = 0.5	384.27
623.15 K, 30710 kPa, x1 = 0.8	404.2
623.15 K, 31220 kPa, x1 = 0.5	418.2
623.15 K, 31480 kPa, x1 = 0.5	419.87
623.15 K, 31720 kPa, x1 = 0.5	423.08
623.15 K, 36430 kPa, x1 = 0.8	444.29
623.15 K, 37340 kPa, x1 = 0.5	462.02
623.15 K, 41330 kPa, x1 = 0.2	546.22
623.15 K, 50360 kPa, x1 = 0.5	519.83
628.15 K, 19790 kPa, x1 = 0.8	259.69
628.15 K, 36970 kPa, x1 = 0.8	437.84
633.15 K, 11600 kPa, x1 = 0.2	67.45
633.15 K, 13740 kPa, x1 = 0.5	117.01
633.15 K, 17410 kPa, x1 = 0.5	170.64
633.15 K, 23850 kPa, x1 = 0.5	292.69
633.15 K, 26000 kPa, x1 = 0.5	326.07
